The values below come from ChEMBL document CHEMBL1201862, “PubChem BioAssay data set” (2004).

Some test systems named below: MDA-MB-231; PC-3; DU-145; HOP-18; LXFL 529; SNB-78; XF498; DMS-114; RXF 631.
What all share (assay): NCI-60 cell line screen, 48 h

Molecules are shown by their SMILES.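 Protocol summary: plate cells (96-well), add compound at 5 concentrations, incubate 48 h, interpolate endpoints linearly. The concentration for 50% growth inhibition is given as GI50.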 Activity calls are given as the source filed them. No stated cut-off is given here; in the data, active = GI50 up to about 1.1 µM and inactive = higher.

On to `CC1CNC(NS(=O)(=O)c2cc(C(=O)Nc3ccc(F)cc3)c(Cl)cc2S)=NN1` (configuration not stated), for which the GI50 with MDA-MB-231 is 82.2 µM (inactive); with PC-3, 30.3 µM (inactive); in the assay with DU-145, > 100 µM (inactive).

As to `C#Cc1c(C)c(/C=C/C(C)=C\C(=O)OC)n(C)c1C`, the GI50 with HOP-18 is > 100 µM (inactive); with LXFL 529, 94 µM (inactive); with SNB-78, > 100 µM (inactive); in the assay on XF498 it was > 100 µM (inactive); in the assay on DMS-114 it was 19 µM (inactive).

Take `COc1cc(N/N=C/C#N)cc(OC)c1OC`: the GI50 in the assay with MDA-MB-231, in the assay on PC-3 and in the assay on DU-145 was > 10 µM (inactive) throughout.

In the case of `COC(=O)c1ccc2c(c1)CCN2C(=O)c1cc2c(cc1Br)OCO2`, the figures for the GI50 with MDA-MB-231, in the assay on PC-3 and in the assay on DU-145 were 1.65 µM (inactive), 0.573 µM (active) and 1.71 µM (inactive), respectively.

With `C=C1C(=O)C[C@@]23CCC[C@@]12CC(O)C3` (some centres not stated), the GI50 in the assay on HOP-18 is 6.79 µM (inactive); in the assay with SNB-78 it was 28.2 µM (inactive); in the assay with XF498, 22.6 µM (inactive); in the assay on DMS-114, 16.7 µM (inactive).

With `COc1ccc2cc(/C=N/NC(=O)Nc3ccccc3)ccc2c1`, the GI50 was 81.3 µM (inactive) in the assay on MDA-MB-231, > 100 µM (inactive) with PC-3 and > 100 µM (inactive) in the assay with DU-145.

In the case of `COC(O)C(=O)c1ccc2c(c1)CC1(C2)Cc2cc3c(cc2C1=O)CCC3` (configuration not stated), the GI50 in the assay with MDA-MB-231 was 27.7 µM (inactive); in the assay with PC-3 it was 14.9 µM (inactive); in the assay on DU-145, 17.1 µM (inactive).

As to `CCCCCC/C(CC(=O)CCC(=O)NCCc1ccccc1)=N\NC(=O)c1ccc2ccccc2c1O`, the GI50 with HOP-18 was 12.1 µM (inactive); in the assay on LXFL 529, 42.1 µM (inactive); in the assay on SNB-78, 67.3 µM (inactive); with XF498, 63 µM (inactive); in the assay on RXF 631, 61.2 µM (inactive).

As for `CCCCCCCNC(P(=O)(O)O)P(=O)(O)O`, the GI50 in the assay on MDA-MB-231, in the assay with PC-3 and in the assay with DU-145 was > 100 µM (inactive) each time.

Take `O=C(O)c1nc2ccc(C(F)(F)F)cc2[nH]c1=O`: the GI50 in the assay on MDA-MB-231, in the assay with PC-3 and in the assay on DU-145 was > 100 µM (inactive) throughout.

For `O=C(CCC(=O)Nc1ccccc1C(F)(F)F)N/N=C1\C(=N\NC(=O)CCC(=O)Nc2ccccc2C(F)(F)F)C(c2ccc3c(c2)OCO3)Oc2ccccc21` (configuration not stated), the GI50 in the assay on HOP-18 was > 100 µM (inactive); in the assay on SNB-78 it was 25.8 µM (inactive); with XF498, 34.2 µM (inactive); with DMS-114 it was 2.74 µM (inactive); in the assay on RXF 631 it was 14 µM (inactive).

For the compound `CCCCCC1CC(C(C)=O)CN1c1ccc(F)cc1` (configuration not stated), the GI50 was 13.1 µM (inactive) with HOP-18; 32.1 µM (inactive) with LXFL 529; 36.4 µM (inactive) in the assay with SNB-78; 21.1 µM (inactive) in the assay with XF498; 20.3 µM (inactive) in the assay on DMS-114.

Consider `CCOC(=O)c1ccc(N[C@@H]2c3cc4c(cc3C(c3cc(OC)c(O)c(OC)c3)[C@H]3C(=O)OCC32)OCO4)cc1O` (some centres not stated), for which the GI50 with HOP-18 is 2.25 µM (inactive); in the assay with SNB-78 it was 1.77 µM (inactive); in the assay with XF498, 1.3 µM (inactive); with DMS-114, 0.56 µM (active).

Regarding `COc1ccc(/C=N/NC(=O)NCCCN(C)C)cc1`, the GI50 in the assay with HOP-18, with SNB-78, in the assay on XF498 and in the assay on DMS-114 was > 100 µM (inactive) in each case.

For `[N-]=[N+]=CC(=O)c1ccccc1C#CCCc1ccccc1`, the GI50 with HOP-18 was 40.3 µM (inactive); in the assay on XF498 it was 12.1 µM (inactive); in the assay with DMS-114, 5.83 µM (inactive).

In the case of `CCOC(=O)[C@H]1Nc2c(cccc2[N+](=O)[O-])C2c3ccccc3CC21` (some centres not stated), the GI50 in the assay on LXFL 529, with SNB-78, in the assay with XF498, in the assay on DMS-114 and in the assay with RXF 631 was > 100 µM (inactive) throughout.

For `CCN(CC)c1ccc2c(c1)Oc1ccc(N(C(C)=O)c3ccccc3)cc1C21OC(=O)c2ccccc21` (configuration not stated), the results for the GI50 in the assay on MDA-MB-231, in the assay with PC-3 and in the assay with DU-145 were > 100 µM (inactive), 13.1 µM (inactive) and > 100 µM (inactive), respectively.

As for `O=C(Nc1cccc(C(F)(F)F)c1)C(=O)C(C(=O)c1ccc(Cl)c(Cl)c1)C1OC(=O)c2ccccc21` (configuration not stated), the GI50 with HOP-18 is 17.5 µM (inactive); in the assay on LXFL 529, 28.7 µM (inactive); in the assay on SNB-78, 32.4 µM (inactive); with XF498 it was > 100 µM (inactive); in the assay with DMS-114, 21.6 µM (inactive); in the assay on RXF 631, 39.3 µM (inactive).

For the compound `COC1=CC(=O)c2ccccc2C1(C)C1=NC(C)(C)CO1` (configuration not stated), the GI50 in the assay with HOP-18, with LXFL 529, with XF498, with DMS-114 and in the assay on RXF 631 was > 100 µM (inactive) each time.

In the case of `CN(C)CCCCN1CCc2c(n(C)c3ccccc23)C1=O`, the GI50 with MDA-MB-231 is 29.5 µM (inactive).

In the case of `[N-]=[N+]=CC(=O)OCC(N)C(=O)O` (configuration not stated), the GI50 with HOP-18 is 625 µM (inactive); with SNB-78, 586 µM (inactive); in the assay with XF498, 5.96 µM (inactive); in the assay on DMS-114, 1.59 µM (inactive).

In the case of `Nc1ncnc2c1ncn2[C@@H]1O[C@H](COP(=O)(O)O)[C@@H](O)[C@@H]1O`, the GI50 with HOP-18 is > 50 µM (inactive); in the assay with SNB-78, > 50 µM (inactive); with XF498 it was > 34.4 µM (inactive); in the assay on DMS-114, > 50 µM (inactive).

In the case of `COc1cc(Nc2nc3ccc(C(F)(F)F)cc3nc2C(=O)O)cc(OC)c1OC`, the values for the GI50 in the assay on MDA-MB-231, in the assay with PC-3 and with DU-145 were 19.2 µM (inactive), 24.4 µM (inactive) and 28.5 µM (inactive), respectively.

In the case of `CCCCCCCCCCC(C)CCCCCCC(=O)O` (configuration not stated), the GI50 in the assay on HOP-18, in the assay on LXFL 529, in the assay with SNB-78, with DMS-114 and in the assay with RXF 631 was > 100 µM (inactive) throughout.

In the case of `CC1(C)CCC2(C(=O)O)C(O)CC3(C)C(=CCC4C5(C)CCC(OC6OCC(O)C(O)C6OC6OCC(O)C(O)C6OC6OCC(O)C(OC7OC(CO)C(O)C(O)C7O)C6O)C(C)(C)C5CCC43C)C2C1` (configuration not stated), the results for the GI50 in the assay on MDA-MB-231, in the assay with PC-3 and in the assay on DU-145 were > 100 µM (inactive), 44.6 µM (inactive) and > 100 µM (inactive), respectively.

`COC(=O)C1=C(C(=O)OC)C(N(C)C)C(C(=O)OC)=C(C(=O)OC)S1`: the GI50 with MDA-MB-231, in the assay on PC-3 and in the assay with DU-145 was > 100 µM (inactive) each time.

`O=NN(CCCl)C(=O)NC1CCSc2ccccc21` (configuration not stated): the GI50 in the assay on HOP-18 is > 69 µM (inactive); in the assay on SNB-78, > 100 µM (inactive); in the assay on XF498 it was > 100 µM (inactive); in the assay with DMS-114, 47.2 µM (inactive).

In the case of `Cc1ccc(-c2c(C#N)c(-c3ccc([N+](=O)[O-])cc3)c(C#N)c(=O)n2NS(=O)(=O)c2ccccc2)cc1`, the GI50 is 38.7 µM (inactive) in the assay on MDA-MB-231 and 25.3 µM (inactive) with PC-3.

For the compound `CCOC(=O)/C(=N/Nc1ccc(Cl)cc1)N1C(=S)N(C)N=C(C)C=C1S`, the GI50 with MDA-MB-231 is 29 µM (inactive); in the assay with DU-145, > 100 µM (inactive).

For the compound `CCCC(=O)Nc1cc(/C=C/C(=O)N2CC(CCl)c3c2cc(OCc2ccccc2)c2[nH]cc(C)c32)n(C)c1` (configuration not stated), the figures for the GI50 in the assay on MDA-MB-231, with PC-3 and in the assay on DU-145 were 0.247 µM (active), 0.103 µM (active) and 0.0194 µM (active), respectively.

In the case of `O=C1C2=C(c3ccccc31)C(c1ccc(Cl)cc1)NC(S)=N2` (configuration not stated), the GI50 is 14.8 µM (inactive) in the assay on LXFL 529 and 22.7 µM (inactive) in the assay with DMS-114.

Regarding `COC(=O)c1c(-c2ccccc2)c2sc3ccccc3n2c1N`, the GI50 in the assay with MDA-MB-231 was 87.1 µM (inactive); in the assay with PC-3, 31.1 µM (inactive); with DU-145, 57.5 µM (inactive).

As for `COC(=O)CC1(CNC(=O)OCc2ccccc2)OCCO1`, the GI50 in the assay with MDA-MB-231, in the assay with PC-3 and in the assay with DU-145 was > 100 µM (inactive) throughout.

Take `O=C(O)c1cc2c3c(c1)[C@H]1C=CC[C@H]1CN3CC1CC=CC21` (some centres not stated): the GI50 in the assay on HOP-18, with LXFL 529, with SNB-78, with XF498 and with DMS-114 was > 100 µM (inactive) in each case.

Take `COc1ccc(C23C(=O)c4ccccc4N2O[C@H]2C(=O)N(c4ccccc4)C(=O)[C@H]23)cc1` (some centres not stated): the GI50 in the assay on HOP-18, in the assay on LXFL 529, with SNB-78, in the assay on XF498, with DMS-114 and in the assay on RXF 631 was > 100 µM (inactive) throughout.

In the case of `Nc1nc(Cl)cc(NCCCCCCCCCCCCNc2cc(Cl)nc(N)n2)n1`, the results for the GI50 with HOP-18, in the assay with LXFL 529 and in the assay on XF498 were > 100 µM (inactive), 0.769 µM (active) and 0.386 µM (active), respectively.

Consider `CC1(C)CCc2cc3c(cc2O1)OC(C)(C)CC3=O`, for which the values for the GI50 with LXFL 529, in the assay on XF498 and in the assay with DMS-114 were 81.5 µM (inactive), 50.8 µM (inactive) and 40.9 µM (inactive), respectively.

As to `Cc1c2ccnc(-c3ccccc3)c2cc2c1[nH]c1ccccc12`, the GI50 in the assay on HOP-18 is 2.15 µM (inactive); with SNB-78, 4.32 µM (inactive); in the assay on DMS-114, 1.69 µM (inactive).

In the case of `CN(C)CCCNc1ccc2nnn3c4ccc(O)cc4c(=O)c1c23`, the GI50 in the assay with MDA-MB-231 is 10.7 µM (inactive); in the assay on HOP-18, 9.06 µM (inactive); in the assay with LXFL 529 it was 6.61 µM (inactive); in the assay with SNB-78, 6.08 µM (inactive); with PC-3 it was 2.84 µM (inactive); in the assay with DU-145, 5.01 µM (inactive). Further, in the assay with DMS-114, the GI50 was 9.18 µM (inactive).

On to `Cc1ccc(S(=O)(=O)N/N=C/c2c(O)ccc3ccccc23)cc1`, for which the GI50 in the assay with MDA-MB-231 is 21.9 µM (inactive); with PC-3, 20.7 µM (inactive); with DU-145 it was 29 µM (inactive).
